Values quoted from earlier work, collected in US20230111756A1, “STABLE FORMULATIONS OF PLANTS EXTRACTS AND METHODS OF MAKING THE SAME” (Nulixir Inc., priority 2021, published 2023).

Conditions: reference solvents n-octanol and water; categorization at pH=7 unless stated otherwise

Molecule	log P
COc1ccc([C@@]23CCC(=O)C[C@@H]2N(C)CC3)cc1OC [mesembrine]	1.5
COc1cc(/C=C\c2ccc(OC)c(O)c2)oc(=O)c1 [11-hydroxyyangonin]	~2.2
COc1ccc(CCc2cc(OC)cc(=O)o2)cc1 [7,8-dihydroyangonin]	~2.9
COc1cc([C@H]2Oc3cc(O)c4c(=O)c(O)c(-c5ccc(O)cc5)oc4c3O[C@@H]2CO)ccc1O [rhodiolin]	~2
hericerin	~6.4
(R)-kawain	~2.7
CC(=O)OC1C=CC(=O)N(C(=O)CCc2ccccc2)C1 (stereo not shown) [pipermethystine]	~1.8
COc1cc2c(c(OC)c1OC)-c1c(cc(OC)c(OC)c1OC)C[C@H](C)[C@H](C)C2 [(−)-schisandrin A]	~3.6
bacopaside B	~2.8
N#C[C@@]1(O[C@@H]2O[C@H](CO)[C@@H](O)[C@H](O)[C@H]2O)C=C[C@@H](O)C1 [tetraphyllin B]	~−2.5
schisandroside C	~1.6
COc1cc2c(c(OC)c1OC)-c1c(cc3c(c1OC)OCO3)CC(C)C(C)C2 (single isomer, unassigned; (-)) [(−)-schisandrin B]	~4
COc1c2c(cc3c1-c1c(cc4c(c1OC)OCO4)C[C@H](C)[C@H](C)C3)OCO2 [(−)-schisandrin C]	~3.5
CC1=C(CO)C(=O)O[C@@H]([C@@H](C)[C@H]2CC[C@H]3[C@@H]4C[C@H](Cl)[C@]5(O)[C@@H](O)C=CC(=O)[C@]5(C)[C@H]4CC[C@]23C)C1 [6a-chloro-5b-hydroxywithaferin A]	~3.2
COC1=CC(=O)O[C@@H](CCc2ccc3c(c2)OCO3)C1 [7,8-dihydromethysticin]	~2.2
COc1cc(/C=C/c2ccccc2)oc(=O)c1 [5,6-dehydrokawain]	~2.9
COc1nc2c(c(=O)n1C)n(C)c(=O)n2C [methylliberine]	~−0.083
tortuosomine	3
COC1=CC(=O)OC(/C=C/c2ccc(OC)cc2)C1 (stereo not shown) [5,6-dihydroyangonin]	~2.5
COc1cc2c(c(OC)c1OC)-c1c(cc(OC)c(OC)c1OC)C[C@](C)(O)[C@@H](C)C2 [schisandrol A]	~3.4
herinacine A	~2.5
COc1cc2c(c(OC)c1OC)-c1c(cc(OC)c(OC)c1OC)C[C@](C)(O)[C@@H](C)C2 [(+)-schisandrin]	~5
